Test results reported in patent publication US5773424A, “Treatment of toxoplasmosis” (priority 1994, dated 1998).

B1: T. gondii adenosine kinase (Toxoplasma gondii) (protein)
chain: MAVDSSNSATGPMRVFAIGNPILDLVAEVPSSFLDEFFLKRGDATLATPEQMRIYSTLDQFNPTSLPGGSALNSVRVVQKLLRKPGSAGYMGAIGDDPRGQVLKELCDKEGLATRFMVAPGQSTGVCAVLINEKERTLCTHLGACGSFRLPEDWTTFASGALIFYATAYTLTATPKNALEVAGYAHGIPNAIFTLNLSAPFCVELYKDAMQSLLLHTNILFGNEEEFAHLAKVHNLVAAEKTALSTANKEHAVEVCTGALRLLTAGQNTGATKLVVMTRGHNPVIAAEQTADGTVVVHEVGVPVVAAEKIVDTNGAGDAFVGGFLYALSQGKTVKQCIMCGNACAQDVIQHVGFSLSFTSLPC

Experiments:
[1] = system: extracts of Toxoplasma gondii; assay: Inhibition of phosphorylation of adenosine (or inosine) to nucleoside 5'-monophosphate; type: biochemical; conditions: T. gondii extract
Procedure: (§1) Enzyme assay. […] Incubation was carried out at 37° C.

[2] = system: extracts of Toxoplasma gondii; assay: Inhibition of phosphorylation of NBMPR (formation of NBMPR-P); type: biochemical
Procedure: as §1

[3] = system: extracts from human liver; assay: Inhibition of phosphorylation of adenosine; type: biochemical; conditions: human liver extract
Procedure: as §1

[4] = system: extracts from mouse liver; assay: Inhibition of phosphorylation of adenosine; type: biochemical; conditions: mouse liver extract
Procedure: as §1

extracts of human liver = assay: Inhibition of phosphorylation of NBMPR; type: biochemical
Procedure: as §1

[5] = molecular target: T. gondii adenosine kinase (Toxoplasma gondii, UniProt Q9TVW2); assay: biochemical; conditions: AppKi for inhibition of T. gondii adenosine kinase, 5 μM adenosine; ± range, at least two estimations
[6] = substrate: Nc1ncnc2c1ncn2[C@@H]1O[C@H](CO)[C@@H](O)[C@H]1O; assay: cells, lysate or membranes named; conditions: other: adenosine as substrate; pH 8.0
Procedure: Preparation of cytosol extracts. For the structure activity relationships studies, approximately 5×10^8 T. gondii were suspended in 1.2 ml of 50 mM N-2-hydroxyethylpiperazine-N'-2-ethanesulfonic acid (HEPES)-Cl (pH 8.0)/1 mM dithiothreitol and homogenized for 30 seconds at setting 10, using a Brinnmann Instruments Polytron homogenizer fitted with a PTA 7K1 probe. The homogenate was then centrifuged at approximately 116,000 g for 1 hour at 5° and the supernatant (cytosol extract) collected and used as the enzyme source. Fresh cytosol extracts were prepared for each experiment.
Adenosine kinase assay. T. gondii adenosine kinase activity was measured by following the formation of [^14 C]AMP from [^14 C]adenosine and ATP. […]
Reactions were started by the addition of [8-^14 C]adenosine, incubated at 37° for 10 minutes and terminated by placing the reaction tubes in a boiling water bath for 2 minutes. […] The substrate and product spots (which accounted for all of the radioactivity on the plates) were identified by UV quenching, cut out, and the radioactivity quantitated by liquid scintillation counting in 20 ml of Scintilene, using a Packard 460 scintillation counter. […] Enzyme velocity was calculated by multiplying the fraction of AMP formed from adenosine times the amount of adenosine in the assay, and dividing by the incubation time. […]

| Molecule | Effect on the phosphorylation of adenosine, in words [1] | % Inhibition of phosphorylation of NBMPR, T. gondii ([2]; 25 μM) [%] | % Inhibition of phosphorylation of NBMPR, T. gondii ([2]; 50 μM) [%] | % Inhibition of phosphorylation of NBMPR, T. gondii ([2]; 100 μM) [%] | Effect on the phosphorylation of adenosine, in words [3] | Effect on the phosphorylation of adenosine, in words [4] | % Inhibition of phosphorylation of NBMPR, Human Liver (extracts of human liver; 25 μM) [%] | % Inhibition of phosphorylation of NBMPR, Human Liver (extracts of human liver; 50 μM) [%] | % Inhibition of phosphorylation of NBMPR, Human Liver (extracts of human liver; 100 μM) [%] | % Inhibition of phosphorylation of NBMPR, T. gondii ([2]; 250 μM) [%] | % Inhibition of phosphorylation of NBMPR, T. gondii ([2]; 500 μM) [%] | % Inhibition of phosphorylation of NBMPR, Human Liver (extracts of human liver; 250 μM) [%] | % Inhibition of phosphorylation of NBMPR, Human Liver (extracts of human liver; 500 μM) [%] | Ki [5] [µM] | Km [6] [µM] |
| --- | --- | --- | --- | --- | --- | --- | --- | --- | --- | --- | --- | --- | --- | --- | --- |
| Nc1nc2c(nc(N)n2[C@@H]2O[C@H](CO)[C@@H](O)[C@H]2O)c(=O)[nH]1 [8-Aminoguanosine, reference compound] | no effect | 0 | 0 | 0 | no effect | no effect | 0 | 0 | 0 | – | – | – | – | – | – |
| Nc1ncnc2c([C@@H]3O[C@H](CO)[C@@H](O)[C@H]3O)n[nH]c12 [Compound 81, 8-Aza-9-deazaadenosine (formycin A)] | no effect | – | – | 0 | no effect | no effect | – | – | 0 | 0 | 0 | 0 | 0 | 1400 | – |
| B1 | – | – | – | – | – | – | – | – | – | – | – | – | – | – | 5 |
